From patent publication US20260125421A1, “ANTIVIRAL COMPOUNDS” (Hoffmann-La Roche Inc., priority 2022, published 2026)
pIC50: −log10 of the molar value.

Key:
Assay in all cases: biochemical
HCoV-229E 3CL^pro = molecular target: T1, HCoV-229E 3CL^pro (Human coronavirus 229E, UniProt P0C6X1)
T1 construct: […]; made in house; host or cells: E. coli BL21 (DE3)

SARS-CoV-2 3CL^pro = molecular target: T2, SARS-CoV-2 3CL^pro (Severe acute respiratory syndrome coronavirus 2, UniProt P0DTD1)
T2 construct: […]; made in house; host or cells: Escherichia coli

SARS-CoV 3CL^pro = SARS-CoV 3CL^pro (Severe acute respiratory syndrome coronavirus, UniProt P0C6X7)
MERS-CoV 3CL^pro = MERS-CoV 3CL^pro (Middle East respiratory syndrome-related coronavirus, UniProt K9N7C7)
Chain of MERS-CoV 3CL^pro (K9N7C7 3248-3553): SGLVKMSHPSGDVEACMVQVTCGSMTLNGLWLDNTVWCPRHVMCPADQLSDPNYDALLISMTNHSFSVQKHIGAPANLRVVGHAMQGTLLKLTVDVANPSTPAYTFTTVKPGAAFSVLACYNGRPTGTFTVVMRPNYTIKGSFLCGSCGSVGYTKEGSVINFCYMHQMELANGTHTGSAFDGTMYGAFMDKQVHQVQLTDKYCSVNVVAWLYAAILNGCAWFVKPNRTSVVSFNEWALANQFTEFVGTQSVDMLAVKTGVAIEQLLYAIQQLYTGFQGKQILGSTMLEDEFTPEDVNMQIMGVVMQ

T1 sequence (P0C6X1 2966-3267): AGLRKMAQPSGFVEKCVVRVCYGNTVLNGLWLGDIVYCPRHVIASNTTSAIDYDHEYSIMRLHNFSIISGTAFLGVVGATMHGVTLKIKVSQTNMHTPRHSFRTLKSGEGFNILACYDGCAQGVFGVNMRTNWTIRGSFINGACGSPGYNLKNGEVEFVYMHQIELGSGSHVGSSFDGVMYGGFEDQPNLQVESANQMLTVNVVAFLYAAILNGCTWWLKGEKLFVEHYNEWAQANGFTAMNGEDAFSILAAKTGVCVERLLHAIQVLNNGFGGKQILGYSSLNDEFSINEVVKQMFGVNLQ

CC(C)(C)[C@H](NC(=O)[C@@H]1CC1(F)F)C(=O)N1C[C@@H]2CCC[C@@H]2[C@H]1C(=O)NN(C[C@@H]1C(=O)N[C@@H]2C[C@H]12)C(=O)[C@@H](F)Cl [Example 40, (1S)-N-[(1S)-1-[(3S,3aS,6aR)-3-[[[(2S)-2-chloro-2-fluoro-acetyl]-[[(1R,4R,5R)-3-oxo-2-azabicyclo[3.1.0]hexan-4-yl]methyl]amino]carbamoyl]-3,3a,4,5,6,6a-hexahydro-1H-cyclopenta[c]pyrrole-2-carbonyl]-2,2-dimethyl-propyl]-2,2-difluoro-cyclopropanecarboxamide] gave a pIC50 (HCoV-229E 3CL^pro) of 6.59, a pIC50 (SARS-CoV-2 3CL^pro) of 7.19 and a pIC50 (SARS-CoV 3CL^pro) of 6.91. The pIC50 (MERS-CoV 3CL^pro) was 6.27.

Compound CC1(C)C[C@@H](CN(NC(=O)[C@@H]2[C@@H]3[C@H](CN2C(=O)[C@@H](NC(=O)[C@@H]2CC2(F)F)C(C)(C)C)C3(C)C)C(=O)[C@@H](F)Cl)C(=O)N1 [Example 23, (1S)-N-[(1S)-1-[(1R,2S,5S)-2-[[[(2S)-2-chloro-2-fluoro-acetyl]-[[(3S)-5,5-dimethyl-2-oxo-pyrrolidin-3-yl]methyl]amino]carbamoyl]-6,6-dimethyl-3-azabicyclo[3.1.0]hexane-3-carbonyl]-2,2-dimethyl-propyl]-2,2-difluoro-cyclopropanecarboxamide] has a pIC50 (HCoV-229E 3CL^pro) of 5.26, a pIC50 (SARS-CoV-2 3CL^pro) of 7.27 and a pIC50 (SARS-CoV 3CL^pro) of 7.07. The pIC50 (MERS-CoV 3CL^pro) was 5.68.

C[C@@H]1C[C@H](CN(NC(=O)[C@@H]2[C@@H]3[C@H](CN2C(=O)[C@@H](NC(=O)[C@@H]2CC2(F)F)C(C)(C)C)C3(C)C)C(=O)[C@@H](F)Cl)C(=O)N1 [Example 32, (1S)-N-[(1S)-1-[(1R,2S,5S)-2-[[[(2S)-2-chloro-2-fluoro-acetyl]-[[(3R,5R)-5-methyl-2-oxo-pyrrolidin-3-yl]methyl]amino]carbamoyl]-6,6-dimethyl-3-azabicyclo[3.1.0]hexane-3-carbonyl]-2,2-dimethyl-propyl]-2,2-difluoro-cyclopropanecarboxamide] was tested, and the pIC50 (HCoV-229E 3CL^pro) was 7.15, the pIC50 (SARS-CoV-2 3CL^pro) was 7.19 and the pIC50 (SARS-CoV 3CL^pro) was 6.94. For the same compound, the pIC50 (MERS-CoV 3CL^pro) was 6.70.

For CC1(C)C[C@@H](CN(NC(=O)[C@@H]2[C@@H]3[C@H](CN2C(=O)[C@@H](NC(=O)[C@@H](F)Cl)C(C)(C)C)C3(C)C)C(=O)[C@@H](F)Cl)C(=O)N1 [Example 22, (2S)-2-chloro-N-[(1S)-1-[(1R,2S,5S)-2-[[[(2S)-2-chloro-2-fluoro-acetyl]-[[(3S)-5,5-dimethyl-2-oxo-pyrrolidin-3-yl]methyl]amino]carbamoyl]-6,6-dimethyl-3-azabicyclo[3.1.0]hexane-3-carbonyl]-2,2-dimethyl-propyl]-2-fluoro-acetamide], the pIC50 (HCoV-229E 3CL^pro) was 5.45, the pIC50 (SARS-CoV-2 3CL^pro) was 7.51 and the pIC50 (SARS-CoV 3CL^pro) was 7.32. It also gave a pIC50 (MERS-CoV 3CL^pro) of 5.73.

CC[C@H](C)[C@H](NC(=O)C1(F)CC1)C(=O)N1C[C@H]2[C@@H]([C@H]1C(=O)NN(C[C@H]1CC(C)(C)NC1=O)C(=O)[C@H](F)Cl)C2(C)C [Example 1b, N-[(1S,2S)-1-[(1R,2S,5S)-2-[[[(2R)-2-chloro-2-fluoro-acetyl]-[[(3R)-5,5-dimethyl-2-oxo-pyrrolidin-3-yl]methyl]amino]carbamoyl]-6,6-dimethyl-3-azabicyclo[3.1.0]hexane-3-carbonyl]-2-methyl-butyl]-1-fluoro-cyclopropanecarboxamide] showed a pIC50 (HCoV-229E 3CL^pro) of 6.88, a pIC50 (SARS-CoV-2 3CL^pro) of 7.89 and a pIC50 (SARS-CoV 3CL^pro) of 7.74. For the same compound, the pIC50 (MERS-CoV 3CL^pro) was 6.63.

CC(C)(C)[C@H](NC(=O)[C@@H]1CC1(F)F)C(=O)N1C[C@@H]2CCC[C@@H]2[C@H]1C(=O)NN(C[C@H]1C(=O)N[C@H]2C[C@H]21)C(=O)[C@H](F)Cl [Example 36, (1S)-N-[(1S)-1-[(3S,3aS,6aR)-3-[[[(2R)-2-chloro-2-fluoro-acetyl]-[[(1S,4S,5S)-3-oxo-2-azabicyclo[3.1.0]hexan-4-yl]methyl]amino]carbamoyl]-3,3a,4,5,6,6a-hexahydro-1H-cyclopenta[c]pyrrole-2-carbonyl]-2,2-dimethyl-propyl]-2,2-difluoro-cyclopropanecarboxamide] gave a pIC50 (HCoV-229E 3CL^pro) of 7.27, a pIC50 (SARS-CoV-2 3CL^pro) of 7.89 and a pIC50 (SARS-CoV 3CL^pro) of 7.85. It also gave a pIC50 (MERS-CoV 3CL^pro) of 6.76.

For CC1(C)C[C@@H](CN(NC(=O)[C@@H]2[C@H]3CCC[C@H]3CN2C(=O)[C@@H](NC(=O)[C@H](F)Cl)C(C)(C)C)C(=O)[C@H](F)Cl)C(=O)N1 [Example 14, (2R)-N-[(1S)-1-[(3S,3aS,6aR)-3-[[[(2R)-2-chloro-2-fluoro-acetyl]-[[(3S)-5,5-dimethyl-2-oxo-pyrrolidin-3-yl]methyl]amino]carbamoyl]-3,3a,4,5,6,6a-hexahydro-1H-cyclopenta[c]pyrrole-2-carbonyl]-2,2-dimethyl-propyl]-2-chloro-2-fluoro-acetamide], the pIC50 (HCoV-229E 3CL^pro) was 5.90, the pIC50 (SARS-CoV-2 3CL^pro) was 8.05 and the pIC50 (SARS-CoV 3CL^pro) was 8.05. For the same compound, the pIC50 (MERS-CoV 3CL^pro) was 5.91.

CC1(C)C[C@H](CN(NC(=O)[C@@H]2[C@H]3CCC[C@H]3CN2C(=O)[C@@H](NC(=O)[C@@H]2CC2(F)F)C(C)(C)C)C(=O)[C@@H](F)Cl)C(=O)N1 [Example 2b, (1S)—N-[(1S)-1-[(3S,3aS,6aR)-3-[[[(2S)-2-chloro-2-fluoro-acetyl]-[[(3R)-5,5-dimethyl-2-oxo-pyrrolidin-3-yl]methyl]amino]carbamoyl]-3,3a,4,5,6,6a-hexahydro-1H-cyclopenta[c]pyrrole-2-carbonyl]-2,2-dimethyl-propyl]-2,2-difluoro-cyclopropanecarboxamide] was tested, and the pIC50 (HCoV-229E 3CL^pro) was under 5.00, the pIC50 (SARS-CoV-2 3CL^pro) was 6.04 and the pIC50 (SARS-CoV 3CL^pro) was 5.76. The pIC50 (MERS-CoV 3CL^pro) was under 5.00.

CC1(C)C[C@@H](CN(NC(=O)[C@@H]2[C@H]3CCC[C@H]3CN2C(=O)[C@@H](NC(=O)[C@@H](F)Cl)C(C)(C)C)C(=O)[C@@H](F)Cl)C(=O)N1 [Example 17] was tested, and the pIC50 (HCoV-229E 3CL^pro) was 5.37, the pIC50 (SARS-CoV-2 3CL^pro) was 7.80 and the pIC50 (SARS-CoV 3CL^pro) was 7.72. The pIC50 (MERS-CoV 3CL^pro) was 5.73.

CC1(C)C[C@@H](CN(NC(=O)[C@@H]2[C@@H]3[C@H](CN2C(=O)[C@@H](NC(=O)[C@@H]2CC2(F)F)C(C)(C)C)C3(C)C)C(=O)[C@H](F)Cl)C(=O)N1 [Example 21, (1S)-N-[(1S)-1-[(1R,2S,5S)-2-[[[(2R)-2-chloro-2-fluoro-acetyl]-[[(3S)-5,5-dimethyl-2-oxo-pyrrolidin-3-yl]methyl]amino]carbamoyl]-6,6-dimethyl-3-azabicyclo[3.1.0]hexane-3-carbonyl]-2,2-dimethyl-propyl]-2,2-difluoro-cyclopropanecarboxamide] was tested, and the pIC50 (HCoV-229E 3CL^pro) was 6.11, the pIC50 (SARS-CoV-2 3CL^pro) was 7.85 and the pIC50 (SARS-CoV 3CL^pro) was 7.66. For the same compound, the pIC50 (MERS-CoV 3CL^pro) was 6.40.

Compound CC(C)(C)[C@H](NC(=O)[C@@H]1CC1(F)F)C(=O)N1C[C@@H]2CCC[C@@H]2[C@H]1C(=O)NN(C[C@H]1CC2(CC2)NC1=O)C(=O)[C@H](F)Cl [Example 26, (1S)-N-[(1S)-1-[(3S,3aS,6aR)-3-[[[(2R)-2-chloro-2-fluoro-acetyl]-[[(6R)-5-oxo-4-azaspiro[2.4]heptan-6-yl]methyl]amino]carbamoyl]-3,3a,4,5,6,6a-hexahydro-1H-cyclopenta[c]pyrrole-2-carbonyl]-2,2-dimethyl-propyl]-2,2-difluoro-cyclopropanecarboxamide] has a pIC50 (HCoV-229E 3CL^pro) of 7.35, a pIC50 (SARS-CoV-2 3CL^pro) of 7.92 and a pIC50 (SARS-CoV 3CL^pro) of 7.96. For the same compound, the pIC50 (MERS-CoV 3CL^pro) was 6.95.

For C[C@H]1C[C@H](CN(NC(=O)[C@@H]2[C@H]3CCC[C@H]3CN2C(=O)[C@@H](NC(=O)[C@@H]2CC2(F)F)C(C)(C)C)C(=O)[C@H](F)Cl)C(=O)N1 [Example 28, (1S)-N-[(1S)-1-[(3S,3aS,6aR)-3-[[[(2R)-2-chloro-2-fluoro-acetyl]-[[(3R,5S)-5-methyl-2-oxo-pyrrolidin-3-yl]methyl]amino]carbamoyl]-3,3a,4,5,6,6a-hexahydro-1H-cyclopenta[c]pyrrole-2-carbonyl]-2,2-dimethyl-propyl]-2,2-difluoro-cyclopropanecarboxamide], the pIC50 (HCoV-229E 3CL^pro) was 6.31, the pIC50 (SARS-CoV-2 3CL^pro) was 7.52 and the pIC50 (SARS-CoV 3CL^pro) was 7.13. It also gave a pIC50 (MERS-CoV 3CL^pro) of 5.94.

CC1(C)CC(CN(NC(=O)[C@@H]2[C@H]3CCC[C@H]3CN2C(=O)[C@@H](NC(=O)[C@@H]2CC2(F)F)C(C)(C)C)C(=O)[C@H](F)Cl)C(=O)N1 (mixture of isomers) [Example 3, (1S)—N-[(1S)-1-[(3S,3aS,6aR)-3-[[[(2R)-2-chloro-2-fluoro-acetyl]-[rac-(5,5-dimethyl-2-oxo-pyrrolidin-3-yl)methyl]amino]carbamoyl]-3,3a,4,5,6,6a-hexahydro-1H-cyclopenta[c]pyrrole-2-carbonyl]-2,2-dimethyl-propyl]-2,2-difluoro-cyclopropanecarboxamide] gave a pIC50 (HCoV-229E 3CL^pro) of 5.60, a pIC50 (SARS-CoV-2 3CL^pro) of 7.64 and a pIC50 (SARS-CoV 3CL^pro) of 7.55. The pIC50 (MERS-CoV 3CL^pro) was 6.07.

CCC(CC)[C@H](NC(=O)C(F)F)C(=O)N1C[C@@H]2CCC[C@@H]2[C@H]1C(=O)NN(C[C@@H]1CC(C)(C)NC1=O)C(=O)[C@H](F)Cl [Example 7, N-[(1S)-1-[(3S,3aS,6aR)-3-[[[(2R)-2-chloro-2-fluoro-acetyl]-[[(3S)-5,5-dimethyl-2-oxo-pyrrolidin-3-yl]methyl]amino]carbamoyl]-3,3a,4,5,6,6a-hexahydro-1H-cyclopenta[c]pyrrole-2-carbonyl]-2-ethyl-butyl]-2,2-difluoro-acetamide] showed a pIC50 (HCoV-229E 3CL^pro) of 6.89, a pIC50 (SARS-CoV-2 3CL^pro) of 8.15 and a pIC50 (SARS-CoV 3CL^pro) of 8.05. It also gave a pIC50 (MERS-CoV 3CL^pro) of 6.79.

Work on C[C@H]1C[C@H](CN(NC(=O)[C@@H]2[C@@H]3[C@H](CN2C(=O)[C@@H](NC(=O)[C@@H]2CC2(F)F)C(C)(C)C)C3(C)C)C(=O)[C@H](F)Cl)C(=O)N1 [Example 31, (1S)-N-[(1S)-1-[(1R,2S,5S)-2-[[[(2R)-2-chloro-2-fluoro-acetyl]-[[(3R,5S)-5-methyl-2-oxo-pyrrolidin-3-yl]methyl]amino]carbamoyl]-6,6-dimethyl-3-azabicyclo[3.1.0]hexane-3-carbonyl]-2,2-dimethyl-propyl]-2,2-difluoro-cyclopropanecarboxamide] yielded a pIC50 (HCoV-229E 3CL^pro) of 6.94, a pIC50 (SARS-CoV-2 3CL^pro) of 7.60 and a pIC50 (SARS-CoV 3CL^pro) of 7.28. For the same compound, the pIC50 (MERS-CoV 3CL^pro) was 6.26.
